Data set [1] concerns the target T1, ZES2b translation products (Bionectria ochroleuca, UniProt Q8NKB0, A65V/H263Y/S41R/T3I).
T1 construct: made in house; host or cells: cell-free coupled transcription/translation (Roche RTS500; T7 polymerase, E. coli ribosomes) from plasmids pFMB35-34 (cDNA) and pFMB35-13 (genomic DNA)
T1 sequence (Q8NKB0 1-264 T3I/S41R/A65V/H263Y): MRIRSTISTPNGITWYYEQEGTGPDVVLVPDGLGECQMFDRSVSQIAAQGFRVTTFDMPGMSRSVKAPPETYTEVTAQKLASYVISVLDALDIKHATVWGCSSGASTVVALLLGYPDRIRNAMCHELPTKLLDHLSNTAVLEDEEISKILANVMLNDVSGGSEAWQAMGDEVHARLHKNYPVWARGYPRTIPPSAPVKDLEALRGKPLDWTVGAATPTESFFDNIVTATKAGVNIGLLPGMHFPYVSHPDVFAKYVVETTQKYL
It is filed as biochemical, Gliocladium roseum. The conditions noted are these: 37° C. for 16 hours.

Data set [2] concerns uterine tissues. To be noted: mouse, in vivo; cited from earlier work.
In data set [3] the test system is Armenian hamster. To be noted: in vivo; cited from earlier work.
Data set [4] deals with human breast cancer cells. The conditions noted are these: cited from earlier work.
For data set [5], the system named is mice. To be noted: mouse, in vivo; cited from earlier work.
Data set [6] has as its system zearalenone esterase synthesis in G. roseum. To be noted: cited from earlier work.
The subject of data set [7] is rats. The conditions noted are these: rat, in vivo; cited from earlier work.
In data set [8] the test system is humans. To be noted: in vivo; cited from earlier work.
Data set [9] deals with ZES1, ZES2, and ZES2b transcripts. Nature of the data set: Differential transcript profiling (Curagen Profiling) of G. roseum cultures. It is filed as cell-based, Gliocladium roseum. The conditions noted are these: G. roseum cultured with 10 μg/ml for 12 hours at 22° C. As to the method: The ZES1, ZES2, and ZES2b sequences of the invention were identified by assaying for differential expression patterns in the presence of α-zearalenol and β-zearalenol, which allowed for identification of the nucleotide sequences of the invention. Specifically, G. roseum was cultured in the presence of either 10 μg/ml α-zearalenol or 10 μg/ml β-zearalenol for 12 hours at 22° C. Following culturing, Curagen Profiling technology was used to identify transcripts present in α-zearalenol-induced cultures but absent in β-zearalenol-induced cultures.

Molecules are shown by their SMILES.

`C[C@H]1CCCC(=O)CCC/C=C/c2cc(O)cc(O)c2C(=O)O1` [zearalenone]: in [1], the “degradation of substrate after incubation with the translation product of pFMB35-13” value (“degradation of substrate … of pFMB35-13” below) is reported as “completely degraded” and the “degradation of substrate after incubation with the translation product of pFMB35-34” value (shortened to “degradation of substrate … of pFMB35-34”) is “completely degraded”. The “modulation of uterine tissues” value in data set [2] is “induce modulation of uterine tissues”. The “induction of hepatic carcinomas” value in data set [3] is “induce hepatic carcinomas”. In [4], the “entry of human breast cancer cells into the cell cycle” value is on record as “stimulates human breast cancer cells to enter the cell cycle”. In addition, the carcinogenicity entry in data set [5] is on record as “carcinogenic”. Further, the “induction of synthesis of zearalenone esterase in G. roseum” value (“induction of synthesis … in G. roseum” for short) in [6] is reported as “occurs only when zearalenone or its derivative α-zearalenol is present in the culture medium”. For the same compound, the teratogenicity result in [7] was “teratogenic”. Moreover, in data set [8], the “estrogenic effects in humans” value is given as “exhibits estrogenic effects” and the “hyperestrogenic syndrome in humans” value is on record as “causes hyperestrogenic syndrome”.
For the compound `C[C@H]1CCC[C@H](O)CCC/C=C/c2cc(O)cc(O)c2C(=O)O1` [α-zearalenol], in data set [1], the “degradation of substrate … of pFMB35-13” value was “completely degraded” and the “degradation of substrate … of pFMB35-34” value is reported as “completely degraded”. For the same compound, the “expression of ZES1, ZES2, and ZES2b transcripts in induced cultures” value in data set [9] was “upregulated”. In addition, the “induction of synthesis … in G. roseum” value in data set [6] is “occurs only when zearalenone or its derivative α-zearalenol is present in the culture medium”.
Turning to `C[C@H]1CCC[C@@H](O)CCC/C=C/c2cc(O)cc(O)c2C(=O)O1` [β-zearalenol], in [1], the “degradation of substrate … of pFMB35-13” value is listed as “completely degraded” and the “degradation of substrate … of pFMB35-34” value was “completely degraded”. For the same compound, the “induction of synthesis … in G. roseum” value in data set [6] is “does not induce synthesis of zearalenone esterase”.
